From US20070059756A1, “Immunointeractive molecules and their uses in treating subjects suffering from Hev b 5 allergies” (priority 1999, published 2007)

Assays:
[1] = test system: latex specific T cell lines; assay: Oligoclonal T cell proliferation assay (3H-thymidine incorporation); format: cell-based, human; set-up: key to Proliferation inducing (+) or non-inducing (−) peptide: Proliferation inducing and non-inducing peptides are indicated by (+) and (−) respectively; Proliferation inducing and non-inducing peptides are indicated by (+) and (−) respectively; conditions: for Oligoclonal proliferative response: 4 day cultures
Protocol: Latex specific T cell lines were isolated using our well established methods for the generation of allergen specific oligoclonal T cell populations (O'Hehir et al., 1987). An initial primary culture was performed for each patient to determine the optimal concentration of LAL for stimulation. For this, peripheral blood mononuclear cells (PBMC) separated from heparinised venous blood by density centrifugation (2×10^5/well) were stimulated with LAL over a concentration range 0.03 to 100 μg/ml, with control cultures of PBMC alone or stimulated with tetanus toxoid. All cultures were maintained in complete medium (RPMI-1640, Gibco Life Technologies supplemented with 2 mmol/L L-glutamine, 100 IU/ml penicillin-streptomycin and 5% screened, heat inactivated human AB serum [Sigma]). […] Therefore, to generate T cell lines, PBMC (2.5×10^6/well) were stimulated for 1 week with LAL at a concentration of 20 μg/ml in 24-well tissue culture plates (Costar, USA). After 7 days, lymphoblasts (1×10^6/well) were restimulated for one week with LAL at a concentration of 20 μg/ml in the presence of an equal number of irradiated (3000 rad) autologous PBMC as antigen presenting cells (APC). On days 2 and 4, cultures were supplemented with Lymphocult-T (5% v/v; Biotest Folex, Germany) and fresh medium. At the end of the second week, lymphoblasts were restimulated for one week with rhev b 5/MBP at a concentration of 20 μg/ml as described above. Oligoclonal T cells were recovered, washed and tested in proliferation and cytokine assays (as described below) either fresh or after cryopreservation in liquid nitrogen. We have previously shown that CD4^+ T cells are preferentially expanded in these cultures.
Oligoclonal T cell blasts (5×10^4) were incubated in 96-well round bottom plates (Linbro, ICN Biomedicals, USA) in triplicate with equal numbers of irradiated APC in the presence of LAL at concentrations ranging from 0.03-100 μg/ml, rHev b 5/MBP (10 and 20 μg/ml), MBP (10 and 20 μg/ml), overlapping peptides of the Hev b 5 sequence (10 and 30 μg/ml), Lymphocult-T (10 IU/ml) or PHA (3 μg/ml). Cultures of T cells and APC in the absence of antigen, T cells alone and APC alone in the absence of antigen were included as controls. After 72 hours cultures were pulsed with 1 μCi of ^3H-thymidine (^3HTdR; Du Pont, NEN) and harvested 12-16 hours later. Proliferation as correlated with ^3HTdR incorporation was measured by liquid scintillation spectroscopy. Results are expressed as mean counts per minute (cpm) for triplicate cultures with standard deviation (SD; ±20% for all experiments).

IL-5 = IL-5 production by latex specific oligoclonal T cells (ELISA on culture supernatants); format: cell-based, human; conditions: for IL-5: supernatant at 48 hours
Protocol: (§1) Representative stimulatory and non-stimulatory peptides were selected and T cells cultured in triplicate with these peptides. At 48 hours 50 μl of supernatant was harvested from the cultures and IL-5 and IFNγ were assayed by ELISA using paired cytokine antibodies (from Pharmingen Becton Dickinson, USA and Endogen, USA respectively). For this, opaque flat bottom ELISA plates (Nalgene, Nunc International) were coated with 30 μl capture antibody at 2 μg/ml in 0.1 M NaHCO3 pH 8.2 coating buffer overnight at 4° C. After washing three times with PBS/0.5% Tween the wells were blocked with 3% BSA/PBS at room temperature for 2 hours. The plates were washed and 30 μL pooled triplicate culture supernatants added in duplicate. […] Light emission was read immediately on a Lumicount microplate Glow Luminometer (Packard Instrument Company). A standard curve was run each time using known concentrations of standard cytokine samples and the concentrations of IL-S and IFNγ in the culture supernatants calculated accordingly. The lower limit of detection of the IL-5 assay was 20 pg/ml and the lower limit of detection of the IFN-γ assay was 2 pg/ml.

IFNγ = IFNγ production by latex specific oligoclonal T cells (ELISA on culture supernatants); format: cell-based, human; conditions: supernatant at 48 hours
Protocol: as §1

IgE = conditions: cited from earlier work
[2] = P1 T cell line, peptide 10 μg/ml
[3] = P1 T cell line, peptide 30 μg/ml
[4] = P2 T cell line, peptide 10 μg/ml
[5] = P2 T cell line, peptide 30 μg/ml
[6] = P3 T cell line, peptide 10 μg/ml
[7] = P3 T cell line, peptide 30 μg/ml
[8] = P4 T cell line, peptide 10 μg/ml
[9] = P4 T cell line, peptide 30 μg/ml

TKETETEAPAAPAEGEKPAE [Hev b 5 (109-128)]
Proliferation inducing (+) or non-inducing (−) peptide ([1]; P1 T cell line): 109-128 (−) | Oligoclonal proliferative response ([1]; P1 T cell line, antigen 10 μg/ml): 8.2 counts per minute × 10^−3 | Oligoclonal proliferative response ([1]; P1 T cell line, antigen 30 μg/ml): 5.6 counts per minute × 10^−3 | Proliferation inducing (+) or non-inducing (−) peptide ([1]; P2 T cell line): 109-128 (+) | Oligoclonal proliferative response ([1]; P2 T cell line, antigen 10 μg/ml): 36.9 counts per minute × 10^−3 | Oligoclonal proliferative response ([1]; P2 T cell line, antigen 30 μg/ml): 42.7 counts per minute × 10^−3 | Proliferation inducing (+) or non-inducing (−) peptide ([1]; P3 T cell line): 109-128 (+) | Oligoclonal proliferative response ([1]; P3 T cell line, antigen 10 μg/ml): 13.7 counts per minute × 10^−3 | Oligoclonal proliferative response ([1]; P3 T cell line, antigen 30 μg/ml): 17.3 counts per minute × 10^−3 | Proliferation inducing (+) or non-inducing (−) peptide ([1]; P4 T cell line): 109-128 (+) | Oligoclonal proliferative response ([1]; P4 T cell line, antigen 10 μg/ml): 2.3 counts per minute × 10^−3 | Oligoclonal proliferative response ([1]; P4 T cell line, antigen 30 μg/ml): 3.0 counts per minute × 10^−3 | Oligoclonal proliferative response ([1]; P5 T cell line, antigen 10 μg/ml): 1.3 counts per minute × 10^−3 | Oligoclonal proliferative response ([1]; P5 T cell line, antigen 30 μg/ml): 0.9 counts per minute × 10^−3 | Oligoclonal proliferative response ([1]; P6 T cell line, antigen 10 μg/ml): 0.9 counts per minute × 10^−3 | Oligoclonal proliferative response ([1]; P6 T cell line, antigen 30 μg/ml): 0.6 counts per minute × 10^−3 | donors whose T cells proliferated in response to the peptide ([1]; five donors with IgE reactivity to rHev b 5/MBP): three of the five donors | IL-5 (IL-5; [2]): 0 pg/mL | IL-5 (IL-5; [3]): 69 pg/mL | IL-5/IFNγ ratio (IL-5; [4]): 4 | IL-5 (IL-5; [4]): 293 pg/mL | IL-5/IFNγ ratio (IL-5; [5]): 6.1 | IL-5 (IL-5; [5]): 595 pg/mL | IL-5/IFNγ ratio (IL-5; [6]): 5.5 | IL-5 (IL-5; [6]): 1403 pg/mL | IL-5/IFNγ ratio (IL-5; [7]): 5.3 | IL-5 (IL-5; [7]): 1559 pg/mL | IL-5/IFNγ ratio (IL-5; [8]): 166 | IL-5 (IL-5; [8]): 166 pg/mL | IL-5/IFNγ ratio (IL-5; [9]): 212 | IL-5 (IL-5; [9]): 212 pg/mL | secretion of IL-5 (in words) (IL-5; patient 4 T cell line): secretion of IL-5 | IFNγ (IFNγ; [2]): 0 pg/mL | IFNγ (IFNγ; [3]): 0 pg/mL | IFNγ (IFNγ; [4]): 73 pg/mL | IFNγ (IFNγ; [5]): 97 pg/mL | IFNγ (IFNγ; [6]): 257 pg/mL | IFNγ (IFNγ; [7]): 292 pg/mL | IFNγ (IFNγ; [8]): 0 pg/mL | IFNγ (IFNγ; [9]): 0 pg/mL

B1: Hev b 5: major allergen in natural rubber latex, highly acidic and proline rich protein of Hevea brasiliensis (protein, listed as Hevea brasiliensis)
chain: MASVEVESAATALPKNETPEVTKAEETKTEEPAAPPASEQETADATPEKEEPTAAPAEPEAPAPETEKAEEVEKIEKTEEPAPEADQTTPEEKPAEPEPVAEEEPKHETKETETEAPAAPAEGEKPAEEEKPITEAAETATTEVPVEKTEE
proportion of HCW with latex allergy whose IgE reacts (IgE; HCW): 92% | proportion of spina bifida patients with latex allergy whose IgE reacts (IgE; spina bifida patients): 56%
